Experimental findings from patent US10766869B2, “Triazoles for the treatment of demyelinating dieases” (Vertex Pharmaceuticals Incorporated, priority 2015, dated 2020) are described below.

Read-outs that look alike come from different tables or passages of the source.

The test deals with primary rat mixed cortical cells. The test can be described thus: In vitro myelination assay (MBP positive myelin strands, fold myelin pixels above background). It counts as cell-based. The conditions noted are these: Rattus norvegicus; for fold induction at 1 µM: 1.0 μM compound; for fold induction at 10 µM: 10.0 μM compound. Summed up: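 Read-out is total MBP-positive myelin strand pixels per well, detected by custom ridge-tracing software and reported as fold over untreated baseline. Primary P1 rat mixed cortical cells received compound (1.0 or 10.0 μM) for 14 days, with medium half-replaced on days 6 and 10. Standard deviation was taken across all replicates.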

Setting [1] is: relative to baseline of no added compound, read-out: Fold myelin pixels above background, 1.0 μM.
Where [2] appears, read: relative to baseline of no added compound, read-out: Fold myelin pixels above background, 10.0 μM.
[3] abbreviates: relative to baseline of no added compound, read-out: Fold myelin pixels above background.
[4] abbreviates: read-out: Fold myelin pixels above background relative to baseline of no added compound.

Turning to `COc1ccc(-n2cnc(Nc3cc(C4CC4)nc(N4CCC(C)CC4)c3)n2)cc1OC` [Compound 22, 2-cyclopropyl-N-[1-(3,4-dimethoxyphenyl)-1,2,4-triazol-3-yl]-6-(4-methyl-1-piperidyl)pyridin-4-amine], under setting [1], the fold induction at 1 µM was in the range of 100 to 1000. Also, the fold induction at 10 µM under setting [2] fell in the range of 100 to 1000.

As for `Cc1cc(Nc2ncn(-c3cc(F)cc(F)c3)n2)cc(N2CCC(C(=O)N3CCOCC3)CC2)c1` [Compound 589, [1-[3-[[1-(3,5-difluorophenyl)-1,2,4-triazol-3-yl]amino]-5-methyl-phenyl]-4-piperidyl]-morpholino-methanone], under setting [3], the fold induction at 1 µM was in the range of 10 to 100 and the fold induction at 10 µM is at most 1.

In the case of `COC1CN(c2cc(F)cc(-n3cnc(Nc4cc(C5CC5)cc(N5CCN(C6COC6)CC5)c4)n3)c2)C1` [Compound 494, N-[3-cyclopropyl-5-[4-(oxetan-3-yl)piperazin-1-yl]phenyl]-1-[3-fluoro-5-(3-methoxyazetidin-1-yl)phenyl]-1,2,4-triazol-3-amine], under setting [3], the fold induction at 1 µM lay within 100 to 1000 and the fold induction at 10 µM fell in the range of 10 to 100.

For the compound `Cc1cc(Nc2ncn(-c3ccncn3)n2)cc(N2CCN(C3COC3)CC2)c1` [Compound 174, N-[3-methyl-5-[4-(oxetan-3-yl)piperazin-1-yl]phenyl]-1-pyrimidin-4-yl-1,2,4-triazol-3-amine], the fold induction at 1 µM under setting [1] was in the range of 1 to 10. Moreover, under setting [2], the fold induction at 10 µM is 10 to 100.

In the case of `[2H]C1([2H])N(c2cc(Nc3ncn(-c4cc(F)cc(F)c4)n3)cc(C(F)F)c2)C([2H])([2H])C([2H])([2H])C([2H])([2H])C1([2H])[2H]` [Compound 876, N-[3-(2,2,3,3,4,4,5,5,6,6-decadeuterio-1-piperidyl)-5-(difluoromethyl)phenyl]-1-(3,5-difluorophenyl)-1,2,4-triazol-3-amine], under setting [4], the fold induction at 1 µM fell in the range of 10 to 100 and the fold induction at 10 µM was in the range of 10 to 100.

On to `Cc1cc(Nc2ncn(-c3cc(F)cc(F)c3)n2)cc(OCCN2CCOCC2)c1` [Compound 812, 1-(3,5-difluorophenyl)-N-[3-methyl-5-(2-morpholinoethoxy)phenyl]-1,2,4-triazol-3-amine], for which, under setting [4], the fold induction at 1 µM was 10 to 100 and the fold induction at 10 µM was in the range of 10 to 100.

With `Cc1cc(Nc2ncn(-c3cc(F)cc(F)c3)n2)cc(N2CCN(C)C(CCO)C2)c1` (stereo not drawn) [Compound 1026, 2-[4-[3-[[1-(3,5-difluorophenyl)-1,2,4-triazol-3-yl]amino]-5-methyl-phenyl]-1-methyl-piperazin-2-yl]ethanol], under setting [4], the fold induction at 1 µM lay within 1 to 10 and the fold induction at 10 µM fell in the range of 1 to 10.

In the case of `COCCN1CCN(c2cc(C)cc(Nc3ncn(-c4cc(F)cc(F)c4)n3)c2)CC1C` (stereo not drawn) [Compound 1011, 1-(3,5-difluorophenyl)-N-[3-[4-(2-methoxyethyl)-3-methyl-piperazin-1-yl]-5-methyl-phenyl]-1,2,4-triazol-3-amine], under setting [4], the fold induction at 1 µM lay in the range of 10 to 100 and the fold induction at 10 µM was at most 1.

In the case of `Cc1cc(Nc2ncn(-c3cc(F)cc(F)c3)n2)cc(C(=O)N2CCN(C3COC3)CC2)c1` [Compound 864, [3-[[1-(3,5-difluorophenyl)-1,2,4-triazol-3-yl]amino]-5-methyl-phenyl]-[4-(oxetan-3-yl)piperazin-1-yl]methanone], under setting [4], the fold induction at 1 µM is 10 to 100 and the fold induction at 10 µM is 10 to 100.

As for `Cc1cc(Nc2ncn(-c3cc(F)cc(F)c3)n2)cc(N2CCCC3(COC3)C2)c1` [Compound 541, 1-(3,5-difluorophenyl)-N-[3-methyl-5-(2-oxa-8-azaspiro[3.5]nonan-8-yl)phenyl]-1,2,4-triazol-3-amine], under setting [3], the fold induction at 1 µM is at most 1 and the fold induction at 10 µM was 1 to 10.

For `Cc1cc(Nc2ncn(-c3ccccc3)n2)cc(N2CCNC([C@](C)(O)C(C)C)C2)n1` (stereo partly drawn) [Compound 57, (2R)-3-methyl-2-[4-[6-methyl-4-[(1-phenyl-1,2,4-triazol-3-yl)amino]-2-pyridyl]piperazin-2-yl]butan-2-ol], under setting [1], the fold induction at 1 µM is 100 to 1000. The fold induction at 10 µM under setting [2] was at most 1.

Take `Cc1cc(Nc2ncn(-c3cccc(C(F)(F)F)c3)n2)cc(OCCn2cccn2)c1` [Compound 644, N-[3-methyl-5-(2-pyrazol-1-ylethoxy)phenyl]-1-[3-(trifluoromethyl)phenyl]-1,2,4-triazol-3-amine]: under setting [3], the fold induction at 1 µM was 1 to 10 and the fold induction at 10 µM was 10 to 100.

Consider `Cc1cc(Nc2ncn(-c3cc(F)cc(F)c3)n2)cc(N2CC(N3CCOC4CC43)C2)c1` (stereo not drawn) [Compound 652, 1-(3,5-difluorophenyl)-N-[3-methyl-5-[3-(5-oxa-2-azabicyclo[4.1.0]heptan-2-yl)azetidin-1-yl]phenyl]-1,2,4-triazol-3-amine], for which, under setting [3], the fold induction at 1 µM lay in the range of 10 to 100 and the fold induction at 10 µM is at most 1.

On to `Cc1cc(Nc2ncn(-c3cc(F)cc(C(F)(F)F)c3)n2)cc(N2CCN(C3COC3)CC2)c1` [Compound 757, 1-[3-fluoro-5-(trifluoromethyl)phenyl]-N-[3-methyl-5-[4-(oxetan-3-yl)piperazin-1-yl]phenyl]-1,2,4-triazol-3-amine], for which, under setting [3], the fold induction at 1 µM was 10 to 100 and the fold induction at 10 µM was 10 to 100.

For `Cc1cc(Nc2ncn(-c3ccccc3)n2)cc(N2CC(N3CCOCC3)C2)c1` [Compound 704, N-[3-methyl-5-(3-morpholinoazetidin-1-yl)phenyl]-1-phenyl-1,2,4-triazol-3-amine], under setting [3], the fold induction at 1 µM fell in the range of 10 to 100 and the fold induction at 10 µM was at most 1.

For `Cc1cc(Nc2ncn(-c3cc(F)cc(F)c3)n2)cc(N2CC(O)(C(C)C)C2)c1` [Compound 518, 1-[3-[[1-(3,5-difluorophenyl)-1,2,4-triazol-3-yl]amino]-5-methyl-phenyl]-3-isopropyl-azetidin-3-ol], under setting [3], the fold induction at 1 µM lay within 10 to 100 and the fold induction at 10 µM lay within 10 to 100.

As for `Cc1cc(Nc2ncn(-c3cc(F)cc(F)c3)n2)cc(N2CCC(N3CCOCC3)CC2)c1` [Compound 324, 1-(3,5-difluorophenyl)-N-[3-methyl-5-(4-morpholino-1-piperidyl)phenyl]-1,2,4-triazol-3-amine], the fold induction at 1 µM under setting [1] lay in the range of 1 to 10. For the same compound, the fold induction at 10 µM under setting [2] fell in the range of 10 to 100.

Regarding `Cc1cc(Nc2ncn(-c3cc(F)cc(F)c3)n2)cc(N2CC(N3CC4CC3CO4)C2)c1` (stereo not drawn) [Compound 788, 1-(3,5-difluorophenyl)-N-[3-methyl-5-[3-(2-oxa-5-azabicyclo[2.2.1]heptan-5-yl)azetidin-1-yl]phenyl]-1,2,4-triazol-3-amine], under setting [4], the fold induction at 1 µM was 10 to 100 and the fold induction at 10 µM is 1 to 10.

In the case of `Cc1cc(Nc2ncn(-c3ccc(F)cc3)n2)cc(N2CCCC2)c1` [Compound 269, 1-(4-fluorophenyl)-N-(3-methyl-5-pyrrolidin-1-yl-phenyl)-1,2,4-triazol-3-amine], the fold induction at 1 µM under setting [1] was 1 to 10. Besides, the fold induction at 10 µM under setting [2] is 10 to 100.

Regarding `CC1(N2CCN(c3cc(C(F)F)cc(Nc4ncn(-c5cc(F)cc(F)c5)n4)n3)CC2)COC1` [Compound 716, 4-(difluoromethyl)-N-[1-(3,5-difluorophenyl)-1,2,4-triazol-3-yl]-6-[4-(3-methyloxetan-3-yl)piperazin-1-yl]pyridin-2-amine], under setting [3], the fold induction at 1 µM was 1 to 10 and the fold induction at 10 µM fell in the range of 100 to 1000.

As to `Cc1cc(Nc2ncn(-c3cccc(C#N)c3)n2)cc(N2CCCC2)c1` [Compound 281, 3-[3-(3-methyl-5-pyrrolidin-1-yl-anilino)-1,2,4-triazol-1-yl]benzonitrile], under setting [1], the fold induction at 1 µM fell in the range of 1 to 10. Besides, the fold induction at 10 µM under setting [2] is at most 1.

Turning to `COC1CN(c2cc(C)cc(Nc3ncn(-c4cc(F)cc(F)c4)n3)c2)C1` [Compound 2, 1-(3,5-difluorophenyl)-N-[3-(3-methoxyazetidin-1-yl)-5-methyl-phenyl]-1,2,4-triazol-3-amine], the fold induction at 1 µM under setting [1] fell in the range of 100 to 1000. Under setting [2], the fold induction at 10 µM lay in the range of 100 to 1000.

Take `CC(=O)N1CCCC(c2cc(C)cc(Nc3ncn(-c4ccccc4)n3)c2)C1` (stereo not drawn) [Compound 117, 1-[3-[3-methyl-5-[(1-phenyl-1,2,4-triazol-3-yl)amino]phenyl]-1-piperidyl]ethanone]: the fold induction at 1 µM under setting [1] was 1000 to 10000. Moreover, under setting [2], the fold induction at 10 µM was at most 1.

Turning to `COc1cc(Nc2ncn(-c3cccc(C(F)F)c3)n2)nc(N2CCN(C3COC3)CC2)c1` [Compound 639, N-[1-[3-(difluoromethyl)phenyl]-1,2,4-triazol-3-yl]-4-methoxy-6-[4-(oxetan-3-yl)piperazin-1-yl]pyridin-2-amine], under setting [3], the fold induction at 1 µM is 1 to 10 and the fold induction at 10 µM was in the range of 1 to 10.

Regarding `Cc1cc(Nc2ncn(-c3cc(F)cc(F)c3)n2)nc(N2CC3(CCOC3)C2)c1` [Compound 570, N-[1-(3,5-difluorophenyl)-1,2,4-triazol-3-yl]-4-methyl-6-(7-oxa-2-azaspiro[3.4]octan-2-yl)pyridin-2-amine], under setting [3], the fold induction at 1 µM is at most 1 and the fold induction at 10 µM is 1 to 10.

In the case of `Cc1cc(Nc2ncn(-c3cc(F)cc(NCCO)c3)n2)cc(N2CC(F)C2)c1` [Compound 852, 2-[3-fluoro-5-[3-[3-(3-fluoroazetidin-1-yl)-5-methyl-anilino]-1,2,4-triazol-1-yl]anilino]ethanol], under setting [4], the fold induction at 1 µM was 1 to 10 and the fold induction at 10 µM is at most 1.

As to `Cc1cc(Nc2ncn(-c3cccc(F)c3)n2)cc(N2CC3(C2)CN(C(C)C)C3)c1` [Compound 1071, 1-(3-fluorophenyl)-N-[3-(2-isopropyl-2,6-diazaspiro[3.3]heptan-6-yl)-5-methyl-phenyl]-1,2,4-triazol-3-amine], under setting [4], the fold induction at 1 µM fell in the range of 10 to 100 and the fold induction at 10 µM was at most 1.
